Read-outs that look alike come from different tables or passages of the source.
Columns and labels:
[1] = system: HUVEC; test: Cell proliferation assay using crystal violet, HUVEC; format: cell-based; settings: Homo sapiens
Experimental: (§1) For quantification, cells are treated with crystal violet, a dye that stains proteins. After washing away of excess dye, the remaining crystal violet is dissolved in a sodium citrate solution. The solution is analyzed photometrically at 590 nm. The optical density of this solution depends on the concentration of crystal violet and therefore on the amount of cells. […] To reduce effects of evaporation, only the inner 60 wells of 96-well plates (coated with 0.1% gelatine solution for studies with HUVEC) were used for experiments.
Cells were seeded at a density of 5 000 cells per well in 100 μl growth medium (HUVEC) or 20 000 (HCT116), 15 000 (SW480 and 518A2) or 10 000 (HT29) cells per well in 200 μl growth medium in 55 wells per plate. 5 wells were filled with medium only. Additionally, a 96-well plate with cells in 12 wells and medium in 6 wells was prepared as T0-plate. The next day, additional 98 μl of growth medium were added in every well (only HUVEC).
Cells were treated with 2 μl of the working solution 24 h after seeding. Final compound concentrations in the well were 10 μM for the first round of screening. The final DMSO concentration was 0.5%. […] After finishing the addition of compounds, the T0-plate was stained with crystal violet for giving the cell density at time point zero. Before staining, the growth medium was poured away. Wells were filled with 50 μl crystal violet solution for 10 min. Then the staining solution was washed away with water. Since crystal violet is environmentally hazardous the waste was collected and disposed in an appropriate manner. After air drying of the plates the crystal violet on the cells was dissolved in 100 μl of sodium citrate solution, and the absorption was measured with a plate reader at 590 nm.
Mean values were corrected with the absorption of stained medium and the corrected absorption of T0 cells. Cell growth was calculated relative to DMSO control for data comparison.

[2] = system: colon carcinoma cell line HCT116p53 wild type; test: Crystal violet assay, HCT116p53wt; format: cell-based; settings: n = 3
Experimental: as §1
(§2) Cells were treated with 2 μl of the working solution 24 h after seeding. Final compound concentrations in the well were 10 μM for the first round of screening. The final DMSO concentration was 0.5%. […] After finishing the addition of compounds, the T0-plate was stained with crystal violet for giving the cell density at time point zero. […] After air drying of the plates the crystal violet on the cells was dissolved in 100 μl of sodium citrate solution, and the absorption was measured with a plate reader at 590 nm.
(§3) Mean values were corrected with the absorption of stained medium and the corrected absorption of T0 cells. Cell growth was calculated relative to DMSO control for data comparison. IC50 values (50% inhibition of cell growth) were determined with GraphPad Prism® (Version 4.03) using nonlinear regression (sigmoidal dose-response with variable slope). […]

[3] = system: colon carcinoma cell line HCT116p53ko; test: Crystal violet assay, HCT116p53ko; format: cell-based; settings: n = 3
Experimental: as §1, §2, §3

[4] = system: melanoma cell line SK-MEL 5; test: Crystal violet assay, SK-MEL 5; format: cell-based; settings: Homo sapiens, n = 3
Experimental: as §1, §2, §3

[5] = system: breast cancer cell line MDA MB231; test: Crystal violet assay, MDA MB231; format: cell-based; settings: Homo sapiens, MDA-MB-231, n = 3
Experimental: as §1, §2, §3

[6] = system: vascular smooth muscle cells (VSMC); test: Crystal violet assay, VSMC; format: cell-based; settings: Rattus norvegicus, n = 3
Experimental: as §1, §2, §3

[7] = system: CLL cell lines MEC-1 and MEC-2; test: Annexin V-FITC / propidium iodide staining, apoptosis in CLL cell lines; format: cell-based; settings: MEC-1 and MEC-2; 24 and 48 hours incubation; FIG. 4
Experimental: Apoptosis was detected using propidium iodide/Annexin V FACS staining (Bender MedSystems).
Annexin V binds to phosphatidylserine which is exposed at the cell surface during execution of apoptosis. First, cells were seeded out at a density of 1.5 to 2.5 million cells per well in 12 well plates and then growth medium was added to each well to get a final volume of 2.5 ml. Compounds to be tested were diluted with medium from a 10 mM stock solution in DMSO to get different concentrations and cells were treated with 25 μl of these solutions. The final DMSO concentration was 0.5%. All treatments and controls were performed twice. Cells were incubated at 37° C. and 5% CO2 for 24 h and 48 h. Then, growth medium was removed by centrifugation, the supernatant discarded and 200 μl of an Annexin V solution were added. After 10 minutes in the dark, cells were washed once with Annexin buffer and the solution removed by centrifugation. The supernatant was discarded again and cells were suspended in 200 μl of a propidium iodide solution. Cells were measured by flow cytometry with a total of 10 000 events. Data were analyzed with CellQuest Pro™.
Compounds 1 and 22 were also tested on the CLL cell lines MEC-1 and MEC-2 in comparison with fludarabine and cyclophosphamide, two compounds used in the treatment of hematological malignancies (MEC-1 is a fludarabine-resistant cell line).

[8] = system: primary chronic lymphocytic leukemia (CLL) cells; test: In vitro drug test in primary CLL cells (CellTiter-Blue viability); format: cell-based; settings: 48 h incubation; mean of 15 patients; FIG. 6
From the text: FIG. 6: […] Data points represent the arithmetic mean of 15 patients calculated in relation to the control. […] The final DMSO concentration was 0.5%.

[9] = system: healthy peripheral blood mononuclear cells (PBMC); test: Effect on healthy PBMC (CellTiter-Blue viability)
Experimental: FIG. 8: Effect of compounds 1 and 22 according to the invention as well as the control drugs fludarabine and cyclophosphamide on the viability of healthy peripheral blood mononuclear cells (PBMC) in suspension culture after 48 h incubation. Data points represent one individual calculated in relation to the control. Viability was measured using the CellTiter Blue assay (Promega, Madison, Wis., USA), and cells incubated in solvent only were used as control.
For quantification, cells were treated with resazurin (7-hydroxy-3H-phenoxazin-3-one 10-oxide) as indicator of cell viability. The method is based on the finding that living cells are able to reduce the non-fluorescent blue dye into the pink colored and highly red fluorescent resorufine. After adding the substrate the cells are incubated for 2 to 4 hours. Then, the solution is analyzed at 560 nm Ex/590 nm Em on a fluorometer. Appropriate cell density for seeding and duration of treatment with the substrate were determined in preliminary experiments.
First, cells were seeded in 96 well plates and then growth medium was added to each well to get a final volume of 80 μl. Compounds to be tested were diluted with medium from a 10 mM stock solution in DMSO to get different concentrations, and 20 μl of these solutions were added to the wells. The final DMSO concentration was 0.5%. All treatments and controls were performed in at least triplicates. Cells were incubated at 37° C. and 5% CO2 for 48 h. Then, 20 μl substrate solution was added to the wells, plates were incubated for 3 hours and analyzed.
The impact of the compounds according to the invention on healthy cells was assessed using peripheral blood mononuclear cells (PBMC). Cell viability was tested using the CellTiter-Blue Cell Viability Assay (Promega, Madison, Wis., USA) as described in Example 7.

| IC50 [2] [nM] | IC50 [3] [nM] | IC50 [4] [nM] | IC50 [5] [nM] | IC50 [6] [nM] | melting point [°C] | SMILES | IC50 ([1]; n = 3, 48 h incubation, read-out: IC50 (nM) HUVEC (converted)) [nM] | IC50 ([1]; n = 3, read-out: IC50 (nM) HUVEC (Table 2)) [nM] | apoptosis induction compared with fludarabine and cyclophosphamide [7] | viability of primary CLL cells in suspension culture [8] | viability of healthy PBMC in suspension culture (toxicity) [9] |
| --- | --- | --- | --- | --- | --- | --- | --- | --- | --- | --- | --- |
| 280 | 100 | 150 | 630 | > 100000 |  | COc1ccccc1/C=C/C=C/C(=O)c1cc(OC)c(OC)c(OC)c1 [Compound 1, 5-(2-Methoxyphenyl)-1-(3′,4′,5′-trimethoxyphenyl)-2,4-pentadiene-1-one] | 340 | 280 | induced apoptosis in a lower concentration range than fludarabine and cyclophosphamide | effective in CLL cells at lower concentrations than the standard therapeutic drugs fludarabine and cyclophosphamide | less toxic |
|  |  |  |  |  | 96 to 97 | CCOc1ccccc1C(=O)/C=C/c1ccc2ccccc2c1 [Compound 22, 3-(2-Naphthyl)-1-(2′-ethoxyphenyl)-2-propene-1-one] |  |  | induced apoptosis in a lower concentration range than fludarabine and cyclophosphamide | effective in CLL cells at lower concentrations than the standard therapeutic drugs fludarabine and cyclophosphamide | less toxic |

Source: patent publication US20130123367A1, “VINYLOGOUS CHALCONE DERIVATIVES AND THEIR MEDICAL USE” (MEDIZINISCHE UNIVERSITAT WIEN, priority 2010, published 2013)
